Experimental findings from patent US9815850B2, “Compounds, compositions and methods” (Denali Therapeutics Inc., priority 2016, dated 2017) are described below.

The target in data set [1] is P-gp (P-glycoprotein, MDR1) (Homo sapiens (Human), UniProt P08183). The experiment in a line: MDCKII-MDR1 permeability, efflux ratio. It is filed as in vitro ADME. The following applies: dog, MDCK-MDR1, pH 7.4, MDCKII-MDR1 cells, read-out: ER MDR1. The procedure: The blood brain barrier (BBB) separates circulating blood from the extracellular fluid of the central nervous system (CNS). The passive membrane permeability (Papp) and the P-gp (P-glycoprotein) substrate efflux potential were determined using the MDCKII-MDR1 cell line as an in vitro model of the effective permeability of a compound through the BBB. A bidirectional assay (Apical to Basolateral (A→B) and Basolateral to Apical (B→A)), in the absence and in the presence of GF120918 (a P-gp inhibitor) was conducted using pre-plated MDCKII-MDR1 cells (Corning HTS Transwell-96) obtained from SOLVO Biotechnology. The assay was run at 3 μM for 90 min (minutes) in triplicate using a HBSS+12.5 mM HEPES pH 7.4 transport buffer. Following incubation of samples from donor and receiver, wells were removed and measured by LC-MS/MS. Samples were extracted by protein precipitation with acetonitrile containing an appropriate internal standard (IS) having a known mass and molecular weight. The precipitate was centrifuged for 10 min at 3000 rpm (revolutions per minute). The supernatants were then collected, diluted if necessary, and injected on to the LC-MS/MS system. […] Papp (apparent permeability expressed in nm/sec [nanometer/second]) values were calculated according to the following equation: […]
P-gp (P-glycoprotein, MDR1), sequence (P08183 whole entry): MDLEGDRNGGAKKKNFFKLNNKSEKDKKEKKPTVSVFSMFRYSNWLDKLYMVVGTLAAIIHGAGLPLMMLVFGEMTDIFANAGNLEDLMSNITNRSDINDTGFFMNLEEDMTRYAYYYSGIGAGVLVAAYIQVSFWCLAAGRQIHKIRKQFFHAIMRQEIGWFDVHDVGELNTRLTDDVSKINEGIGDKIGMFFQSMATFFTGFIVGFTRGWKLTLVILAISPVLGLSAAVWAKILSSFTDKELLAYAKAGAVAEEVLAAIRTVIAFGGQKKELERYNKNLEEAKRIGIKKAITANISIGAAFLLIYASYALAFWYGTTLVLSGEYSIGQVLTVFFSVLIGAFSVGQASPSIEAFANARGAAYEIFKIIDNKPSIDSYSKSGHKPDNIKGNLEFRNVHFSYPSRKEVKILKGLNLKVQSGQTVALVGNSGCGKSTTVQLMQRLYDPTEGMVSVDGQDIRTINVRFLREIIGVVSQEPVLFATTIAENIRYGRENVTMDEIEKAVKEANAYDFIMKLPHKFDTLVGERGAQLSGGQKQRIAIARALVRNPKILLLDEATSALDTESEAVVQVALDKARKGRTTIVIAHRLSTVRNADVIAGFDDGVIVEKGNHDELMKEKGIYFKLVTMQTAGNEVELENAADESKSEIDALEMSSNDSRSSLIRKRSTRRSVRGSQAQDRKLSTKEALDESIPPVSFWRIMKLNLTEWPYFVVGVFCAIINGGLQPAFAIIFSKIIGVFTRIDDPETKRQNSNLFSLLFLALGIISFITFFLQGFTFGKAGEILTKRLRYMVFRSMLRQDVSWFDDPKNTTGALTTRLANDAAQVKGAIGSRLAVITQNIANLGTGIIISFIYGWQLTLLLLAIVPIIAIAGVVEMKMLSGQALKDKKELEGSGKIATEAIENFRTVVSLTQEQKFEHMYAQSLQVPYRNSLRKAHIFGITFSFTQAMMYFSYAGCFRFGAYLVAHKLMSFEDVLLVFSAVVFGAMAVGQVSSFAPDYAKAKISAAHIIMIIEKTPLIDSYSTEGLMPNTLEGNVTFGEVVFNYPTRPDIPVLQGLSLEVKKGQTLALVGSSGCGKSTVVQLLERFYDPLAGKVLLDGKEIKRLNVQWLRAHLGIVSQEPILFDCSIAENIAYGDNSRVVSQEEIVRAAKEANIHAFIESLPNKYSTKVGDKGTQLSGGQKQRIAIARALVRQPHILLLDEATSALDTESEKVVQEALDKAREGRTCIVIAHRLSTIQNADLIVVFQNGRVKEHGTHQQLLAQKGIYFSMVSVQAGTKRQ
Where dQ/dt is the permeability rate, C0 is the initial concentration in the donor solution (expressed as IS ratio), A and B are the surface areas of the filter (the surface area of the cell monolayer).
Monolayer efflux ratios (ER) were derived using the following equation: […]

Data set [2] relates to FADD-deficient Jurkat cells. In words: Cellular necroptosis assay (human TNFα-induced). Type of data set: cell-based. As to conditions: read-out: Cell IC50. The procedure:
Ten concentrations of the test compounds were assessed in duplicate in two different test occasions. […] The day of the experiment cells were diluted to a density of […] (5,000 cells/well) with culture medium and added (40 μL) into the 384-well plate containing 0.2 μL/well of test compounds and reference compounds (CRCs) (200×). Cell plates were then incubated at 37° C.-5% CO2. After 30 min, necroptotic cell death was induced with human TNFα (10 ng/mL) and cell viability was evaluated 48 h later by measuring cellular ATP levels using CellTiter-Glo® kit (Promega). Luminescence was read by using Victor V (Perkin Elmer) multilabel plate reader.

The conditions of data set [3]: in vivo.
Protocol: (§1) The protein binding in plasma was determined using a Rapid Equilibrium Dialysis Device (Thermo Scientific RED Device) or 96-well dialyzer apparatus (HTDialysis LLC). […] If required, plasma samples were pre-incubated (2 hours at 37° C.) with diisopropyl fluorophosphate (DFP) at the final concentration of 100 μM to prevent compound degradation due to amide hydrolysis. Appropriate volumes of spiked samples along with blank phosphate buffer were added to either device and incubated at 37° C. for a total of 5 hours with agitation at 500 rpm. Following incubation, an equal aliquot of dialysed matrix (plasma or buffer) is added to an equal volume of the opposite blank matrix such that the volume of buffer to plasma are equal. Mixed matrix samples were extracted by protein precipitation using acetonitrile containing the appropriate IS. Samples were then centrifuged for 10 min at 2800 rpm. Supernatants were collected and diluted and then injected on to an HPLC-MS/MS or UPLC-MS/MS system. Samples were analyzed by monitoring the appropriate parent/daughter ion transitions for the test and control compounds. The peak area ratios were used to measure test item concentrations. The fraction unbound (Afu) was determined as the ratio of the peak area ratio in buffer divided by the peak area ratio in plasma.
(§2) The PK properties of test articles were determined in male Sprague-Dawley Crl:CD(SD) rats, male Beagle dogs and male cynomolgus monkeys. Studies were conducted to the highest standards of animal welfare in accordance with national legislation and under approval of the internal animal care and use committees.
(§3) Compounds were administered by IV bolus to animals following an overnight fast. […] The formulations were administered at dose volumes ranging from 0.5-2 mL/kg. The IV dose ranged from 0.5-1 mg/kg.
(§4) Following dose administration, 8-9 serial blood samples were collected over 24 hours. Samples were mixed with anticoagulant and placed on wet ice prior to processing. Plasma was harvested following centrifugation, extracted using protein precipitation with acetonitrile containing IS. The processed supernatant was analyzed using UPLC or LC-MS/MS using specific parent/daughter ion pairs for the test article and IS. Plasma concentrations were determined using a calibration curve prepared using known concentrations of analyte. Pharmacokinetic parameters utilizing measured concentrations were calculated using Phoenix WinNonlin. The unbound plasma clearance was calculated as the ratio of the total body clearance divided by the fraction unbound in plasma.
The conditions of data set [4]: cynomolgus monkey, in vivo.
Protocol: as §1, §2, §3, §4
A further data set has as its target GST-hRIPK1 (8-327) (Homo sapiens (Human), UniProt Q13546). The experiment in a line: Fluorescent Polarization Binding (FP Binding) assay. As to conditions: 10 nM GST-hRIPK1 (8-327), 5 nM fluorescent labeled ligand; read-out: FP IC50. The procedure: Fluorescent Polarization Binding (FP Binding) assay (Berger S. B. et al. […] Maki J. L. et al. […] Test Compounds were serially diluted in DMSO at 100 fold final concentrations in the assay (1% DMSO final). […] For negative control the enzyme addition was replaced by assay buffer only. After addition of 5 μL of fluorescent labeled ligand at twice the final concentrations in assay buffer, the plate was incubated at RT for 30 min.

Setting [5] is: human TNFα 10 ng/mL, viability after 48 h.
Where [6] appears, read: male, Sprague-Dawley Crl:CD(SD).
The mark [7] stands for this setting: Homo sapiens, 48 h, human TNFα 10 ng/mL, viability after 48 h.

Where two headings read alike, the source gives them in different places.

What is called IC50 is the point on the concentration scale where inhibition reaches its midpoint.

GST-hRIPK1 (8-327), sequence (Q13546 8-327): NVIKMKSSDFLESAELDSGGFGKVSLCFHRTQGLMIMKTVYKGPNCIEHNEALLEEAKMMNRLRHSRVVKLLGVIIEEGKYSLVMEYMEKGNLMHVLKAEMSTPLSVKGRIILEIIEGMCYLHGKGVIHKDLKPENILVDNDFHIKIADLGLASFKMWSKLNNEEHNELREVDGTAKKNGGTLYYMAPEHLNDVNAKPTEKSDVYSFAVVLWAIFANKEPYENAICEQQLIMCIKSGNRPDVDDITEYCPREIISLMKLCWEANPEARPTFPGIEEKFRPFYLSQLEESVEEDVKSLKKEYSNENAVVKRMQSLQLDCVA

As for `CN1C(=O)[C@@H](NC(=O)c2cc(C3(c4ccccc4)CC3)on2)COc2ccccc21` [Example 8, (S)-N-(5-methyl-4-oxo-2,3,4,5-tetrahydrobenzo[b][1,4]oxazepin-3-yl)-5-(1-phenylcyclopropyl)isoxazole-3-carboxamide], in data set [1], the efflux ratio at 90 min, 3 μM was 0.8. The half-inhibitory concentration (IC50) in data set [2] (setting [5]) was determined as 4 nM. Also, the “Rat unbound CL” value in data set [3] (setting [6]) came out at 3700 mL/min/kg. Regarding `CN1C(=O)[C@@H](NC(=O)c2cc(Cc3ccccc3)on2)CC2(CC2)c2ccccc21` [Example 9, (S)-5-benzyl-N-(1-methyl-2-oxo-1,2,3,4-tetrahydrospiro[benzo[b]azepine-5,1′-cyclopropan]-3-yl)isoxazole-3-carboxamide], the IC50 in data set [2] (setting [5]) was determined as 8 nM. In the case of `CN1C(=O)[C@@H](NC(=O)c2nc(Cc3ccccc3)n[nH]2)COc2cccnc21` [Example 42, (S)-5-benzyl-N-(5-methyl-4-oxo-2,3,4,5-tetrahydropyrido[3,2-b][1,4]oxazepin-3-yl)-4H-1,2,4-triazole-3-carboxamide], the IC50 in data set [2] (Homo sapiens, 48 h) is 0.6 nM. For the molecule `CN1C(=O)[C@@H](NC(=O)c2nnc(Cc3ccccc3)[nH]2)[C@H]2C[C@H]2c2ccccc21` [Example 46A], the “Rat unbound CL” value in data set [3] came to 188 mL/min/kg. Take `C[C@H]1Oc2cccnc2N(C)C(=O)[C@H]1NC(=O)c1nn(Cc2ccccc2)cc1F` [Example 92, 1-benzyl-N-((2R,3S)-2,5-dimethyl-4-oxo-2,3,4,5-tetrahydropyrido[3,2-b][1,4]oxazepin-3-yl)-4-fluoro-1H-pyrazole-3-carboxamide]: the efflux ratio at 90 min, 3 μM in data set [1] is 1.4. Besides, the IC50 in data set [2] (setting [7]) came to 0.7 nM. In addition, the “Rat unbound CL” value in data set [3] (setting [6]) turned out to be 420 mL/min/kg. As for `C[C@H]1Oc2cccnc2N(C)C(=O)[C@H]1NC(=O)c1nnc(Cc2ccccc2)[nH]1` [Example 94, 5-benzyl-N-((2R,3S)-2,5-dimethyl-4-oxo-2,3,4,5-tetrahydropyrido[3,2-b][1,4]oxazepin-3-yl)-4H-1,2,4-triazole-3-carboxamide], the efflux ratio at 90 min, 3 μM in data set [1] worked out at 14. Further, the “Cyno unbound CL” value in data set [4] (male) stood at 40 mL/min/kg. The 50% inhibitory concentration (IC50) in data set [2] (setting [7]) is 6 nM. The “Rat unbound CL” value in data set [3] (setting [6]) worked out at 44 mL/min/kg. For `C[C@H]1Oc2cccnc2N(C)C(=O)[C@H]1NC(=O)c1nnc(Cc2ccccc2)o1` [Example 134, 5-Benzyl-N-((2R,3S)-2,5-dimethyl-4-oxo-2,3,4,5-tetrahydropyrido[3,2-b][1,4]oxazepin-3-yl)-1,3,4-oxadiazole-2-carboxamide], in that order: 1.1, 140 mL/min/kg, 3 nM and 100 mL/min/kg.

With `CN1C(=O)[C@@H](NC(=O)c2cc(Cc3ccccc3)on2)COc2cccnc21` [Example 142, (S)-5-Benzyl-N-(5-methyl-4-oxo-2,3,4,5-tetrahydropyrido[3,2-b][1,4]oxazepin-3-yl)isoxazole-3-carboxamide], the IC50 in data set [2] (setting [7]) turned out to be 0.7 nM.

Regarding `CN1C(=O)[C@@H](NC(=O)c2nnc(Cc3cccc(C#N)c3)[nH]2)COc2cccnc21` [Example 161, (S)-5-(3-cyanobenzyl)-N-(5-methyl-4-oxo-2,3,4,5-tetrahydropyrido[3,2-b][1,4]oxazepin-3-yl)-4H-1,2,4-triazole-3-carboxamide], in data set [2] (setting [7]), the IC50 was 2 nM. In the case of `CN1C(=O)[C@@H](NC(=O)c2nnc(Cc3cccc(C#N)c3)[nH]2)COc2ccccc21` [Example 163, (S)-5-(3-cyanobenzyl)-N-(5-methyl-4-oxo-2,3,4,5-tetrahydrobenzo[b][1,4]oxazepin-3-yl)-4H-1,2,4-triazole-3-carboxamide], the IC50 in data set [2] (setting [7]) was determined as 1 nM. Take `CN1C(=O)[C@@H](NC(=O)c2ncn(Cc3cccc(C#N)c3)n2)COc2cccnc21` [Example 171, (S)-1-(3-cyanobenzyl)-N-(5-methyl-4-oxo-2,3,4,5-tetrahydropyrido[3,2-b][1,4]oxazepin-3-yl)-1H-1,2,4-triazole-3-carboxamide]: in data set [3] (setting [6]), the “Rat unbound CL” value worked out at 32 mL/min/kg.

For the molecule `C[C@H]1Oc2cccnc2N(C)C(=O)[C@H]1NC(=O)c1ncn(Cc2cccc(C#N)c2)n1` [Example 172, 1-(3-cyanobenzyl)-N-((2R,3S)-2,5-dimethyl-4-oxo-2,3,4,5-tetrahydropyrido[3,2-b][1,4]oxazepin-3-yl)-1H-1,2,4-triazole-3-carboxamide], in data set [2] (setting [7]), the IC50 came out at 1 nM. Also, in data set [3] (setting [6]), the “Rat unbound CL” value turned out to be 65 mL/min/kg. Regarding `CN1C(=O)[C@@H](NC(=O)c2nnc(Cc3ccccc3)o2)[C@H]2C[C@H]2c2nccnc21` [Example 177A], the “Cyno unbound CL” value in data set [4] worked out at 58 mL/min/kg. In addition, the “Rat unbound CL” value in data set [3] was found to be 55 mL/min/kg. As for `C[C@H]1Oc2ncccc2N(C)C(=O)[C@H]1NC(=O)c1nnc(Cc2ccccc2)o1` [Example 193, 5-benzyl-N-((3S,4R)-1,4-dimethyl-2-oxo-1,2,3,4-tetrahydropyrido[2,3-b][1,4]oxazepin-3-yl)-1,3,4-oxadiazole-2-carboxamide], in data set [2] (setting [7]), the IC50 came out at 210 nM. Still for that read-out and setting: with `CN1C(=O)[C@@H](NC(=O)c2cn(Cc3ccccc3)nn2)[C@H]2C[C@H]2c2nccnc21` [Example 195, 1-benzyl-N-((7S,7aS,8aR)-5-methyl-6-oxo-5,6,7,7a,8,8a-hexahydrocyclopropa[d]pyrazino[2,3-b]azepin-7-yl)-1H-1,2,3-triazole-4-carboxamide] the figure was 16 nM; with `CN1C(=O)[C@@H](NC(=O)c2cc(Cc3ccccc3)on2)[C@H]2C[C@H]2c2nccnc21` [Example 197, 5-benzyl-N-((7S,7aS,8aR)-5-methyl-6-oxo-5,6,7,7a,8,8a-hexahydrocyclopropa[d]pyrazino[2,3-b]azepin-7-yl)isoxazole-3-carboxamide], 3 nM; with `[2H]C([2H])([2H])N1C(=O)[C@@H](NC(=O)c2nn(Cc3ccccc3)cc2F)[C@@H](C)Oc2ncccc21` [Example 205, 1-benzyl-N-((3S,4R)-1-trideuteriomethyl-4-methyl-2-oxo-1,2,3,4-tetrahydropyrido[2,3-b][1,4]oxazepin-3-yl)-4-fluoro-1H-pyrazole-3-carboxamide], 21 nM. Turning to `CN1C(=O)[C@@H](NC(=O)c2nnc(Cc3ccc(F)cc3)o2)[C@H]2C[C@H]2c2nccnc21` [Example 223, 5-(4-fluorobenzyl)-N-((7S,7aS,8aR)-5-methyl-6-oxo-5,6,7,7a,8,8a-hexahydrocyclopropa[d]pyrazino[2,3-b]azepin-7-yl)-1,3,4-oxadiazole-2-carboxamide], the IC50 on GST-hRIPK1 (8-327) lay within 0.1 to 1000 nM. On to `CN1C(=O)[C@@H](NC(=O)c2nn(Cc3ncccn3)cc2F)COc2ccccc21` [Example 224, (S)-4-fluoro-N-(5-methyl-4-oxo-2,3,4,5-tetrahydrobenzo[b][1,4]oxazepin-3-yl)-1-(pyrimidin-2-ylmethyl)-1H-pyrazole-3-carboxamide], for which the IC50 at GST-hRIPK1 (8-327) fell in the range of 0.1 to 1000 nM.

`CN1C(=O)[C@@H](NC(=O)c2nnc(Cc3ccccc3)o2)CCc2ccccc21` [Example 225, (S)-5-benzyl-N-(1-methyl-2-oxo-2,3,4,5-tetrahydro-1H-benzo[b]azepin-3-yl)-1,3,4-oxadiazole-2-carboxamide]: the IC50 at GST-hRIPK1 (8-327) is 0.1 to 1000 nM. As for `CN1C(=O)[C@@H](NC(=O)c2ncc(Cc3ccccn3)o2)[C@H]2C[C@H]2c2nccnc21` [Example 226], the IC50 at GST-hRIPK1 (8-327) lay within 0.1 to 1000 nM. With `CN1C(=O)[C@@H](NC(=O)c2ncc(C(F)(F)c3ccccc3)o2)[C@H]2C[C@H]2c2nccnc21` [Example 227], the IC50 on GST-hRIPK1 (8-327) fell in the range of 0.1 to 1000 nM.
